Measurements: the supplement of paper PMC13380429

Experiments:
Settings in all cases: 72 h
Calu-3 [1] = assay: cell viability relative to DMSO; higher = less toxic
Caco-2 [2] = assay: as above
Vero E6 [3] = assay: as above
U2OS [4] = assay: as above
HepG2 [5] = assay: as above
Calu-3 [6] = assay: drug sensitivity score (DSS) for viability; higher = more toxic; extreme values may be limits of the assay
Caco-2 [7] = assay: as above
Vero E6 [8] = assay: as above
U2OS [9] = assay: as above
HepG2 [10] = assay: as above
Calu-3 [11] = assay: relative viability EC50 (midpoint between 100% and the lowest measured viability); higher = less toxic
HepG2 [12] = assay: as above
Caco-2 [13] = assay: as above
Vero E6 [14] = assay: as above
U2OS [15] = assay: as above

Row | SMILES | cell viability (Calu-3 [1]; 1 nM) [%] | cell viability (Calu-3 [1]; 10 nM) [%] | cell viability (Calu-3 [1]; 100 nM) [%] | cell viability (Calu-3 [1]; 1000 nM) [%] | cell viability (Calu-3 [1]; 10000 nM) [%] | cell viability (Caco-2 [2]; 1 nM) [%] | cell viability (Caco-2 [2]; 10 nM) [%] | cell viability (Caco-2 [2]; 100 nM) [%] | cell viability (Caco-2 [2]; 1000 nM) [%] | cell viability (Caco-2 [2]; 10000 nM) [%] | cell viability (Vero E6 [3]; 1 nM) [%] | cell viability (Vero E6 [3]; 10 nM) [%] | cell viability (Vero E6 [3]; 100 nM) [%] | cell viability (Vero E6 [3]; 1000 nM) [%] | cell viability (Vero E6 [3]; 10000 nM) [%] | cell viability (U2OS [4]; 1 nM) [%] | cell viability (U2OS [4]; 10 nM) [%] | cell viability (U2OS [4]; 100 nM) [%] | cell viability (U2OS [4]; 1000 nM) [%] | cell viability (U2OS [4]; 10000 nM) [%] | cell viability (HepG2 [5]; 1 nM) [%] | cell viability (HepG2 [5]; 10 nM) [%] | cell viability (HepG2 [5]; 100 nM) [%] | cell viability (HepG2 [5]; 1000 nM) [%] | cell viability (HepG2 [5]; 10000 nM) [%] | drug sensitivity score (Calu-3 [6]) | drug sensitivity score (Caco-2 [7]) | drug sensitivity score (Vero E6 [8]) | drug sensitivity score (U2OS [9]) | drug sensitivity score (HepG2 [10]) | relative viability EC50 (Calu-3 [11]) [µM] | relative viability EC50 (HepG2 [12]) [µM] | relative viability EC50 (Caco-2 [13]) [µM] | relative viability EC50 (Vero E6 [14]) [µM] | relative viability EC50 (U2OS [15]) [µM]
1 | O=C(NOCC(O)CO)c1cc(Br)c(F)c(F)c1Nc1ccc(I)cc1F (stereo not given) | 94.8 | 81.8 | 73.3 | 62.1 | 43.2 | 102 | 92.3 | 73.3 | 69.5 | 68.7 | 93.8 | 88.6 | 76.7 | 55.2 | 51.3 | 103 | 94.7 | 92.7 | 97.6 | 67.8 | 99.5 | 97.9 | 46.1 | 25.7 | 21.3 | 11.8 | 9.1 | 11.1 | 1.8 | 20.9 | 0.102 | 0.0645 |  |  | 
2 | CC(=O)N[C@H]1[C@H]([C@H](O)[C@H](O)CO)OC(O)(C(=O)O)C[C@@H]1O (mixture of isomers) [aceneuramic-acid] | 113 | 99.6 | 99.2 | 97.1 | 90.4 | 106 | 99 | 85.8 | 99.3 | 93.6 | 102 | 97.4 | 101 | 93.7 | 98 |  |  |  |  |  | 94.6 | 90.1 | 99.9 | 67.9 | 86.1 | 0 | 0 | 0 |  | 2.5 | > 10 |  | > 10 | > 10 | 
3 | CCCCCCCCCCCCCCCCO [1-hexadecanol] | 94 | 95.5 | 102 | 95.5 | 97.3 | 107 | 97.4 | 87.3 | 96.6 | 95.1 | 99.7 | 97.3 | 96 | 95.9 | 102 | 97.8 | 100 | 97 | 97.3 | 92.7 |  |  |  |  |  | 0 | 0 | 0 | 0 |  | > 10 |  | > 10 | > 10 | > 10
4 | Cc1[nH]c2ccc(O)cc2c1CCN [2-methyl-5-hydroxytryptamine] | 109 | 109 | 102 | 101 | 99.3 | 104 | 105 | 98.3 | 102 | 102 | 95 | 96.5 | 98.4 | 96.6 | 94.9 | 101 | 101 | 97.3 | 106 | 101 |  |  |  |  |  | 0 | 0 | 0 | 0 |  | > 10 |  | > 10 | > 10 | > 10
